Read-outs that look alike come from different tables or passages of the source. Each block holds one molecule with its values, some of them ahead of it.
Key:
[1] = in vivo
Description: (§1) Belinostat was administered by a 30 min intravenous (IV) infusion on days 1 through 5 of each cycle; pevonedistat was administered by a 60 min IV infusion on days 1, 3 and 5 immediately after belinostat. The treatments were repeated on 21-day cycles until disease progression or unacceptable toxicity. […] The regimen was administered on an outpatient basis.
(§2) Blood samples for measurement of plasma concentrations were collected on day 1 of cycle 1 for both belinostat and pevonedistat. Belinostat, PK samples were collected pretreatment, 5 min prior to the end of the infusion, and at 0.25, 0.5, 1, 2, 4, 6, 8, and 24 h after the end of the infusion. Pevonedistat, PK samples were collected pretreatment and 0.5, 1, 2, 2.5, 5, and 24 h after the start of the infusion. Plasma was stored at − 80 °C until analysis. […] Concentrations of belinostat were determined over the range of 30–5000 ng/mL with dilutions of up to 1:100 v/v using a validated LC/MS/MS method at the Analytical Pharmacology Core Laboratory at the Sidney Kimmel Comprehensive Cancer Center at Johns Hopkins [33].
(§3) Pharmacokinetic parameters were calculated from individual concentration–time data using standard noncompartmental methods as implemented in Phoenix WinNonlin version 8.2 (Pharsight A Certara Company, Cary, North Carolina). Pharmacokinetic parameters were summarized using descriptive statistics. Differences between the pharmacokinetic parameters between dose levels or BSA-based dose were evaluated statistically via the nonparametric Kruskal–Wallis test. All statistical tests were performed using JMP Statistical Discovery software (version 7; SAS Institute, Cary, NC).

[2] = test system: relapsed/refractory AML and myelodysplastic syndrome; design: method as in PMID 24369094, PMID 21538061; settings: some patients; cited from earlier work
[3] = design: method as in PMID 31097586, PMID 33441097; settings: e.g. value, compared with clinical Cmax; cited from earlier work
[4] = Plasma pharmacokinetics of belinostat and belinostat glucuronide (LC/MS/MS, noncompartmental analysis)
Description: as §1, §2, §3

high-risk MDS = test system: high-risk MDS; design: method as in PMID 35728048; settings: comparator (azacitidine without pevonedistat); subset with high-risk MDS, post-hoc analysis; cited from earlier work
[5] = cycle 1 day 1, dose level 1, belinostat 800 mg/m^2 IV (pevonedistat 20 mg/m^2), n=2, actual values
[6] = cycle 1 day 1, dose level 3, belinostat 800 mg/m^2 IV (pevonedistat 37 mg/m^2), n=2, actual values

Pharmacokinetic parameters compared between dose levels [1]: not different by dose level
Compound: O=C(/C=C/c1cccc(S(=O)(=O)Nc2ccccc2)c1)NO[C@@H]1O[C@H](C(=O)O)[C@@H](O)[C@H](O)[C@H]1O [Belinostat glucuronide]

Belinostat clearance by BSA-based dose ([4]; 1000 mg/m^2 compared with 800 mg/m^2, p = 0.05, Kruskal–Wallis): significantly higher
AUCINF [4, 5]: 75.2 µM·h
Cl (systemic clearance) [4, 5]: 87.5 L/h
T1/2 [4, 5]: 40.2 min
Tmax ([4]; cycle 1 day 1, dose level 2, belinostat 800 mg/m^2 IV (pevonedistat 25 mg/m^2), median (range; n)): 0.5 (0.4–0.5; 3) h
Tmax ([4]; cycle 1 day 1, dose level 3, belinostat 800 mg/m^2 IV (pevonedistat 37 mg/m^2), median (range; n)): 0.4 (0.4–0.5; 3) h
AUCINF [4, 6]: 87.4 µM·h
Cl (systemic clearance) [4, 6]: 82.4 L/h
T1/2 [4, 6]: 87.6 min
Pharmacokinetic parameters compared between dose levels ([4]; dose levels 1-5, Kruskal–Wallis): not different by dose level
Tmax ([4]; human, plasma, iv): 30 min
AUC(0-inf) ([4]; human, plasma, iv, 800 mg/m2, AUCINF, cycle 1 day 1, belinostat 800 mg/m^2 IV, all 800 mg/m^2 patients (dose levels 1-3), mean±SD, n=7): 67.5 ± 19.1 µM·h
clearance ([4]; human, plasma, iv, 800 mg/m2, Cl (systemic clearance), cycle 1 day 1, belinostat 800 mg/m^2 IV, all 800 mg/m^2 patients (dose levels 1-3), mean±SD, n=7): 1290 mL/min
half-life ([4]; human, plasma, iv, 800 mg/m2, T1/2, cycle 1 day 1, belinostat 800 mg/m^2 IV, all 800 mg/m^2 patients (dose levels 1-3), mean±SD, n=7): 67.8 ± 30 min
AUC(0-inf) ([4]; human, plasma, iv, 1000 mg/m2, AUCINF, cycle 1 day 1, belinostat 1000 mg/m^2 IV, all 1000 mg/m^2 patients (dose levels 4-5), mean±SD, n=7): 51.6 ± 25.8 µM·h
clearance ([4]; human, plasma, iv, 1000 mg/m2, Cl (systemic clearance), cycle 1 day 1, belinostat 1000 mg/m^2 IV, all 1000 mg/m^2 patients (dose levels 4-5), mean±SD, n=7): 2180 mL/min
half-life ([4]; human, plasma, iv, 1000 mg/m2, T1/2, cycle 1 day 1, belinostat 1000 mg/m^2 IV, all 1000 mg/m^2 patients (dose levels 4-5), mean±SD, n=7): 53.4 ± 18 min
Cmax ([4]; human, plasma, iv, 1000 mg/m2, preEOI Cmax (peak plasma concentration), cycle 1 day 1, belinostat 1000 mg/m^2 IV, all 1000 mg/m^2 patients (dose levels 4-5), mean±SD, n=7): 104 ± 37.8 µM
AUC(0-inf) ([4]; human, plasma, iv, AUCINF, cycle 1 day 1, dose level 1, belinostat 800 mg/m^2 IV (pevonedistat 20 mg/m^2), n=2, actual values): 54.6 µM·h
AUC(0-inf) ([4]; human, plasma, iv, AUCINF, cycle 1 day 1, dose level 2, belinostat 800 mg/m^2 IV (pevonedistat 25 mg/m^2), mean±SD, n=3): 64.7 ± 27.4 µM·h
AUC(0-inf) ([4]; human, plasma, iv, AUCINF, cycle 1 day 1, dose level 3, belinostat 800 mg/m^2 IV (pevonedistat 37 mg/m^2), n=2, actual values): 61 µM·h
AUC(0-inf) ([4]; human, plasma, iv, AUCINF, cycle 1 day 1, dose level 4, belinostat 1000 mg/m^2 IV (pevonedistat 37 mg/m^2), mean±SD, n=3): 60.3 ± 39.2 µM·h
AUC(0-inf) ([4]; human, plasma, iv, AUCINF, cycle 1 day 1, dose level 5, belinostat 1000 mg/m^2 IV (pevonedistat 50 mg/m^2), mean±SD, n=4): 45.1 ± 13.4 µM·h
clearance ([4]; human, plasma, iv, Cl (systemic clearance), cycle 1 day 1, dose level 1, belinostat 800 mg/m^2 IV (pevonedistat 20 mg/m^2), n=2, actual values): 1000 mL/min
clearance ([4]; human, plasma, iv, Cl (systemic clearance), cycle 1 day 1, dose level 2, belinostat 800 mg/m^2 IV (pevonedistat 25 mg/m^2), mean±SD, n=3): 1380 mL/min
clearance ([4]; human, plasma, iv, Cl (systemic clearance), cycle 1 day 1, dose level 3, belinostat 800 mg/m^2 IV (pevonedistat 37 mg/m^2), n=2, actual values): 1030 mL/min
clearance ([4]; human, plasma, iv, Cl (systemic clearance), cycle 1 day 1, dose level 4, belinostat 1000 mg/m^2 IV (pevonedistat 37 mg/m^2), mean±SD, n=3): 2020 mL/min
clearance ([4]; human, plasma, iv, Cl (systemic clearance), cycle 1 day 1, dose level 5, belinostat 1000 mg/m^2 IV (pevonedistat 50 mg/m^2), mean±SD, n=4): 2300 mL/min
half-life ([4]; human, plasma, iv, T1/2, cycle 1 day 1, dose level 1, belinostat 800 mg/m^2 IV (pevonedistat 20 mg/m^2), n=2, actual values): 35.4 min
half-life ([4]; human, plasma, iv, T1/2, cycle 1 day 1, dose level 2, belinostat 800 mg/m^2 IV (pevonedistat 25 mg/m^2), mean±SD, n=3): 81.6 ± 36.6 min
half-life ([4]; human, plasma, iv, T1/2, cycle 1 day 1, dose level 3, belinostat 800 mg/m^2 IV (pevonedistat 37 mg/m^2), n=2, actual values): 67.2 min
half-life ([4]; human, plasma, iv, T1/2, cycle 1 day 1, dose level 4, belinostat 1000 mg/m^2 IV (pevonedistat 37 mg/m^2), mean±SD, n=3): 61.2 ± 26.4 min
half-life ([4]; human, plasma, iv, T1/2, cycle 1 day 1, dose level 5, belinostat 1000 mg/m^2 IV (pevonedistat 50 mg/m^2), mean±SD, n=4): 47.4 ± 7.2 min
Cmax ([4]; human, plasma, iv, preEOI Cmax (peak plasma concentration), cycle 1 day 1, dose level 1, belinostat 800 mg/m^2 IV (pevonedistat 20 mg/m^2), n=2, actual values): 109 µM
Cmax ([4]; human, plasma, iv, preEOI Cmax (peak plasma concentration), cycle 1 day 1, dose level 2, belinostat 800 mg/m^2 IV (pevonedistat 25 mg/m^2), mean±SD, n=3): 120 ± 50.3 µM
Cmax ([4]; human, plasma, iv, preEOI Cmax (peak plasma concentration), cycle 1 day 1, dose level 4, belinostat 1000 mg/m^2 IV (pevonedistat 37 mg/m^2), mean±SD, n=4): 96.5 ± 46 µM
Cmax ([4]; human, plasma, iv, preEOI Cmax (peak plasma concentration), cycle 1 day 1, dose level 5, belinostat 1000 mg/m^2 IV (pevonedistat 50 mg/m^2), mean±SD, n=3): 114 ± 29.4 µM
Cmax ([4]; read-out: preEOI Cmax (peak plasma concentration), cycle 1 day 1, belinostat 800 mg/m^2 IV, all 800 mg/m^2 patients (dose levels 1-3), mean±SD, n=8): 123 ± 34.3 µM
Cmax ([4]; read-out: preEOI Cmax (peak plasma concentration), cycle 1 day 1, dose level 1, belinostat 800 mg/m^2 IV (pevonedistat 20 mg/m^2), n=2, actual values): 144 µM
Cmax ([4]; read-out: preEOI Cmax (peak plasma concentration), cycle 1 day 1, dose level 3, belinostat 800 mg/m^2 IV (pevonedistat 37 mg/m^2), mean±SD, n=3): 125 ± 35 µM
Compound: O=C(/C=C/c1cccc(S(=O)(=O)Nc2ccccc2)c1)NO [Belinostat]
Single-agent clinical activity [2]: stable disease over several months
Concentrations shown to exert activity in preclinical studies [3]: 100 to 200 nM

Compound: Nc1ncn([C@@H]2O[C@H](CO)[C@@H](O)[C@H]2O)c(=O)n1 [azacitidine]
Survival (high-risk MDS): 20.6 mos

From PMC11742280, “A phase I study of MLN4924 and belinostat in relapsed/refractory acute myeloid leukemia or myelodysplastic syndrome” (Cancer Chemotherapy and Pharmacology, 2025)
